# Experimental data taken from patent publication US9944602B2, “Piperidinone herbicides” (E. I. DU PONT DE NEMOURS AND COMPANY, priority 2014, dated 2018).
# What was measured:
# Type in all cases: in vivo
# [1] = tested on: galium (catchweed bedstraw, Galium aparine); experiment: Test C postemergence galium; settings: Table C, scale 0 to 100
# Source text: (§1) Seeds of plant species selected from blackgrass (Alopecurus myosuroides), ryegrass, Italian (Italian ryegrass, Lolium multiflorum), wheat (winter wheat, Triticum aestivum), galium (catchweed bedstraw, Galium aparine), corn (Zea mays), crabgrass, large (large crabgrass, Digitaria sanguinalis), foxtail, giant (giant foxtail, Setaria faberii), johnsongrass (Sorghum halepense), lambsquarters (Chenopodium album), morningglory (Ipomoea coccinea), yellow (yellow nutsedge, Cyperus esculentus), pigweed (Amaranthus retroflexus), ragweed (common ragweed, Ambrosia elatior), soybean (Glycine max), barnyardgrass (Echinochloa crus-galli), oilseed rape (Brassica napus), waterhemp (common waterhemp, Amaranthus rudis), and velvetleaf (Abutilon theophrasti) were planted into a blend of loam soil and sand and treated preemergence with test chemicals formulated in a non-phytotoxic solvent mixture which included a surfactant. At the same time, plants selected from these crop and weed species and also chickweed (common chickweed, Stellaria media), kochia (Kochia scoparia), and oat, wild (wild oat, Avena fatua) were planted in pots containing Sunshine Redi-Earth® planting medium comprising spaghnum peat moss, vermiculite, starter nutrients and dolomitic limestone and treated with postemergence applications of test chemicals formulated in the same manner. Plants ranged in height from 2 to 18 cm (1- to 4-leaf stage) for postemergence treatments. Treated plants and controls were maintained in a greenhouse for 13 to 15 days, after which time all species were compared to controls and visually evaluated. Plant response ratings, summarized in Table C, are based on a scale of 0 to 100 where 0 is no effect and 100 is complete control. A dash (-) response means no test result.
# [2] = tested on: foxtail, giant (giant foxtail, Setaria faberii); experiment: Test C postemergence foxtail, giant; settings: Table C, scale 0 to 100
# Source text: as §1
# [3] = tested on: johnsongrass (Sorghum halepense); experiment: Test C postemergence johnsongrass; settings: Table C, scale 0 to 100
# Source text: as §1
# [4] = tested on: lambsquarters (Chenopodium album); experiment: Test C postemergence lambsquarters; settings: Table C, scale 0 to 100
# Source text: as §1
# [5] = tested on: morningglory (Ipomoea coccinea); experiment: Test C postemergence morningglory; settings: Table C, scale 0 to 100
# Source text: as §1
# [6] = tested on: ragweed (common ragweed, Ambrosia elatior); experiment: Test C postemergence ragweed; settings: Table C, scale 0 to 100
# Source text: as §1
# soybean (Glycine max) [7] = experiment: Test C postemergence soybean; settings: Table C, scale 0 to 100
# Source text: as §1
# [8] = tested on: barnyardgrass (Echinochloa crus-galli); experiment: Test C postemergence barnyardgrass; settings: Table C, scale 0 to 100
# Source text: as §1
# [9] = tested on: ryegrass, Italian (Italian ryegrass, Lolium multiflorum); experiment: Test C preemergence ryegrass, Italian; settings: Table C, scale 0 to 100
# Source text: as §1
# [10] = tested on: galium (catchweed bedstraw, Galium aparine); experiment: Test C preemergence galium; settings: Table C, scale 0 to 100
# Source text: as §1
# corn (Zea mays) = experiment: Test C preemergence corn; settings: Table C, scale 0 to 100
# Source text: as §1
# [11] = tested on: yellow (yellow nutsedge, Cyperus esculentus); experiment: Test C preemergence yellow nutsedge; settings: Table C, scale 0 to 100
# Source text: as §1
# [12] = tested on: pigweed (Amaranthus retroflexus); experiment: Test C preemergence pigweed; settings: Table C, scale 0 to 100
# Source text: as §1
# [13] = tested on: ragweed (common ragweed, Ambrosia elatior); experiment: Test C preemergence ragweed; settings: Table C, scale 0 to 100
# Source text: as §1
# soybean (Glycine max) [14] = experiment: Test C preemergence soybean; settings: Table C, scale 0 to 100
# Source text: as §1
# [15] = tested on: waterhemp (common waterhemp, Amaranthus rudis); experiment: Test C preemergence waterhemp; settings: Table C, scale 0 to 100
# Source text: as §1
# [16] = tested on: velvetleaf (Abutilon theophrasti); experiment: Test A preemergence velvetleaf; settings: 0 to 100 scale, 0 no effect, 100 complete control
# Source text: (§2) Seeds of plant species selected from barnyardgrass (Echinochloa crus-galli), kochia (Kochia scoparia), ragweed (common ragweed, Ambrosia elatior), ryegrass, Italian (Italian ryegrass, Lolium multiflorum), crabgrass, large (large crabgrass, Digitaria sanguinalis), foxtail, giant (giant foxtail, Setaria faberii), morningglory (Ipomoea spp.), pigweed (Amaranthus retroflexus), velvetleaf (Abutilon theophrasti), wheat (Triticum aestivum), and corn (Zea mays) were planted into a blend of loam soil and sand and treated preemergence with a directed soil spray using test chemicals formulated in a non-phytotoxic solvent mixture which included a surfactant.
# (§3) At the same time, plants selected from these crop and weed species and also blackgrass (Alopecurus myosuroides), and galium (catchweed bedstraw, Galium aparine) were planted in pots containing the same blend of loam soil and sand and treated with postemergence applications of test chemicals formulated in the same manner. Plants ranged in height from 2 to 10 cm and were in the one- to two-leaf stage for the postemergence treatment. Treated plants and untreated controls were maintained in a greenhouse for approximately 10 d, after which time all treated plants were compared to untreated controls and visually evaluated for injury. Plant response ratings, summarized in Table A, are based on a 0 to 100 scale where 0 is no effect and 100 is complete control. A dash (-) response means no test result.
# [17] = tested on: velvetleaf (Abutilon theophrasti); experiment: Test A postemergence velvetleaf; settings: 0 to 100 scale, 0 is no effect, 100 is complete control
# Source text: as §2, §3
smiles,measurement,setting,value
O=C1NCCC(c2cccc(C(F)(F)F)c2)C1C(=O)Nc1ccccc1Cl (racemic) [Compound 17],Plant response rating,[1]; 31 g ai/ha,0
same,Plant response rating,[1]; 62 g ai/ha,0
same,Plant response rating,[1]; 125 g ai/ha,0
same,Plant response rating,[1]; 250 g ai/ha,0
same,Plant response rating,[2]; 31 g ai/ha,0
same,Plant response rating,[2]; 62 g ai/ha,5
same,Plant response rating,[2]; 125 g ai/ha,5
same,Plant response rating,[2]; 250 g ai/ha,5
same,Plant response rating,[3]; 31 g ai/ha,0
same,Plant response rating,[3]; 62 g ai/ha,0
same,Plant response rating,[3]; 125 g ai/ha,0
same,Plant response rating,[3]; 250 g ai/ha,0
same,Plant response rating,[4]; 62 g ai/ha,75
same,Plant response rating,[4]; 250 g ai/ha,80
same,Plant response rating,[5]; 31 g ai/ha,0
same,Plant response rating,[5]; 62 g ai/ha,0
same,Plant response rating,[5]; 125 g ai/ha,0
same,Plant response rating,[5]; 250 g ai/ha,5
same,Plant response rating,[6]; 31 g ai/ha,0
same,Plant response rating,[6]; 62 g ai/ha,0
same,Plant response rating,[6]; 125 g ai/ha,0
same,Plant response rating,[6]; 250 g ai/ha,0
same,Plant response rating,soybean (Glycine max) [7]; 31 g ai/ha,0
same,Plant response rating,soybean (Glycine max) [7]; 62 g ai/ha,10
same,Plant response rating,soybean (Glycine max) [7]; 125 g ai/ha,0
same,Plant response rating,soybean (Glycine max) [7]; 250 g ai/ha,0
same,Plant response rating,[8]; 31 g ai/ha,0
same,Plant response rating,[8]; 62 g ai/ha,0
same,Plant response rating,[8]; 125 g ai/ha,5
same,Plant response rating,[8]; 250 g ai/ha,50
O=C1NCCC(c2cccc(C(F)(F)F)c2)C1C(=O)Nc1ccc(F)c(F)c1F (racemic) [Compound 28],Plant response rating,[9]; 31 g ai/ha,0
same,Plant response rating,[9]; 62 g ai/ha,0
same,Plant response rating,[9]; 125 g ai/ha,0
same,Plant response rating,[9]; 250 g ai/ha,35
same,Plant response rating,[10]; 31 g ai/ha,0
same,Plant response rating,corn (Zea mays); 31 g ai/ha,0
same,Plant response rating,corn (Zea mays); 62 g ai/ha,0
same,Plant response rating,corn (Zea mays); 125 g ai/ha,30
same,Plant response rating,corn (Zea mays); 250 g ai/ha,55
same,Plant response rating,[11]; 31 g ai/ha,0
same,Plant response rating,[11]; 62 g ai/ha,0
same,Plant response rating,[11]; 125 g ai/ha,10
same,Plant response rating,[11]; 250 g ai/ha,50
same,Plant response rating,[12]; 125 g ai/ha,0
same,Plant response rating,[13]; 31 g ai/ha,0
same,Plant response rating,[13]; 62 g ai/ha,0
same,Plant response rating,[13]; 125 g ai/ha,0
same,Plant response rating,[13]; 250 g ai/ha,0
same,Plant response rating,soybean (Glycine max) [14]; 31 g ai/ha,0
same,Plant response rating,soybean (Glycine max) [14]; 62 g ai/ha,0
same,Plant response rating,soybean (Glycine max) [14]; 125 g ai/ha,0
same,Plant response rating,soybean (Glycine max) [14]; 250 g ai/ha,0
same,Plant response rating,[15]; 31 g ai/ha,0
same,Plant response rating,[15]; 125 g ai/ha,0
same,Plant response rating,[15]; 250 g ai/ha,60
"O=C1NCCC(c2cccc(C(F)(F)F)c2)C1C(=O)Nc1cccc(F)c1F (stereo not shown) [Compound 9, N-(2,3-difluorophenyl)-2-oxo-4-[3-(trifluoromethyl)phenyl]-3-piperidinecarboxamide]",Velvetleaf plant response rating,[16]; 125 g ai/ha,0
same,Velvetleaf plant response rating,[16]; 500 g ai/ha,0
same,"Plant response rating, Velvetleaf",[17]; 125 g ai/ha,0
same,"Plant response rating, Velvetleaf",[17]; 500 g ai/ha,0
same,Plant response rating,[9]; 31 g ai/ha,30
same,Plant response rating,[9]; 62 g ai/ha,50
same,Plant response rating,[9]; 125 g ai/ha,30
same,Plant response rating,[9]; 250 g ai/ha,80
same,Plant response rating,[10]; 31 g ai/ha,0
same,Plant response rating,[10]; 62 g ai/ha,0
same,Plant response rating,[10]; 125 g ai/ha,0
same,Plant response rating,[10]; 250 g ai/ha,75
same,Plant response rating,corn (Zea mays); 31 g ai/ha,0
same,Plant response rating,corn (Zea mays); 62 g ai/ha,0
same,Plant response rating,corn (Zea mays); 125 g ai/ha,75
same,Plant response rating,corn (Zea mays); 250 g ai/ha,90
same,Plant response rating,[11]; 31 g ai/ha,0
same,Plant response rating,[11]; 62 g ai/ha,0
same,Plant response rating,[11]; 125 g ai/ha,0
same,Plant response rating,[11]; 250 g ai/ha,0
same,Plant response rating,[12]; 31 g ai/ha,5
same,Plant response rating,[12]; 62 g ai/ha,0
same,Plant response rating,[12]; 125 g ai/ha,0
same,Plant response rating,[12]; 250 g ai/ha,10
same,Plant response rating,[13]; 31 g ai/ha,0
same,Plant response rating,[13]; 62 g ai/ha,0
same,Plant response rating,[13]; 125 g ai/ha,10
same,Plant response rating,[13]; 250 g ai/ha,20
same,Plant response rating,soybean (Glycine max) [14]; 31 g ai/ha,0
same,Plant response rating,soybean (Glycine max) [14]; 62 g ai/ha,0
same,Plant response rating,soybean (Glycine max) [14]; 125 g ai/ha,0
same,Plant response rating,soybean (Glycine max) [14]; 250 g ai/ha,0
same,Plant response rating,[15]; 31 g ai/ha,15
same,Plant response rating,[15]; 62 g ai/ha,0
same,Plant response rating,[15]; 125 g ai/ha,20
same,Plant response rating,[15]; 250 g ai/ha,0
same,Plant response rating,[1]; 31 g ai/ha,0
same,Plant response rating,[1]; 62 g ai/ha,0
same,Plant response rating,[1]; 125 g ai/ha,0
same,Plant response rating,[1]; 250 g ai/ha,40
same,Plant response rating,[2]; 31 g ai/ha,0
same,Plant response rating,[2]; 62 g ai/ha,5
same,Plant response rating,[2]; 125 g ai/ha,35
same,Plant response rating,[2]; 250 g ai/ha,85
same,Plant response rating,[3]; 31 g ai/ha,0
same,Plant response rating,[3]; 62 g ai/ha,0
same,Plant response rating,[3]; 125 g ai/ha,0
same,Plant response rating,[3]; 250 g ai/ha,5
same,Plant response rating,[4]; 31 g ai/ha,0
same,Plant response rating,[4]; 62 g ai/ha,0
same,Plant response rating,[4]; 125 g ai/ha,5
same,Plant response rating,[4]; 250 g ai/ha,0
same,Plant response rating,[5]; 31 g ai/ha,0
same,Plant response rating,[5]; 62 g ai/ha,0
same,Plant response rating,[5]; 125 g ai/ha,30
same,Plant response rating,[5]; 250 g ai/ha,40
same,Plant response rating,[6]; 31 g ai/ha,0
same,Plant response rating,[6]; 62 g ai/ha,0
same,Plant response rating,[6]; 125 g ai/ha,0
same,Plant response rating,[6]; 250 g ai/ha,5
same,Plant response rating,soybean (Glycine max) [7]; 31 g ai/ha,0
same,Plant response rating,soybean (Glycine max) [7]; 62 g ai/ha,0
same,Plant response rating,soybean (Glycine max) [7]; 125 g ai/ha,0
same,Plant response rating,soybean (Glycine max) [7]; 250 g ai/ha,10
same,Plant response rating,[8]; 31 g ai/ha,0
same,Plant response rating,[8]; 62 g ai/ha,5
same,Plant response rating,[8]; 125 g ai/ha,60
same,Plant response rating,[8]; 250 g ai/ha,85
"O=C1NCCC(c2cccc(C(F)(F)F)c2)C1C(=O)Nc1ccccc1C(F)(F)F (stereo not shown) [Compound 10, 2-oxo-N-[2-(trifluoromethyl)phenyl)-4-[3-(trifluoromethyl)phenyl]-3-piperidinecarboxamide]",Velvetleaf plant response rating,[16]; 125 g ai/ha,0
same,Velvetleaf plant response rating,[16]; 500 g ai/ha,0
same,"Plant response rating, Velvetleaf",[17]; 125 g ai/ha,0
same,"Plant response rating, Velvetleaf",[17]; 500 g ai/ha,0
